Source: publication PMC6736568, “Discovery of Novel Anti-cryptosporidial Activities From Natural Products by in vitro High-Throughput Phenotypic Screening” (Frontiers in Microbiology, 2019)
Like-named read-outs stand apart in the source and are kept apart here.

How the values were obtained:
[1] = test system: Cryptosporidium parvum; test: qRT-PCR assay of the growth of C. parvum in vitro in HCT-8 host cells (primary and secondary screening, EC50); format: cell-based; details: for % Inhibition (3.3 uM): secondary screening at 3.3 uM
[2] = test system: HCT-8 host cells (Hs18S)
[3] = primary screening at 10 uM, from Hs18S ΔCT
[4] = primary screening at 10 uM, treated vs control

| Compound | Inhibition (%) ([1]; primary screening at 10 uM) | Cytotoxicity (%) [2, 3] | Hs18S ΔCT [2, 4] | % Inhibition (3.3 uM) [1] | Cytotoxicity (%) ([2]; 10 µM) | Hs18S ΔCT [2] | Inhibition (%) ([1]; 10 µM) |
| --- | --- | --- | --- | --- | --- | --- | --- |
| C=CCCCCCCCCCCCC(O)CC(O)COC(C)=O (stereo not drawn) [AVOCADENE ACETATE] | -0.39% | -38.4% | -0.47 |  |  |  |  |
| CC1(C)C2CC(=O)[C@]3(C)C(CC[C@@]4(C)[C@H](c5ccoc5)OC(=O)[C@H]5O[C@]543)[C@@]2(C)C(=O)C[C@H]1O (stereo partly drawn) [1,7-DIDEACETOXY-1,7-DIOXO-3-DEACETYLKHIVORIN] | 26.84% | -6.9% | -0.10 |  |  |  |  |
| C/C1=C\CC/C(C)=C/CC(C)(C)/C=C/C1 | -30.91% | 0.1% | 0.00 |  |  |  |  |
| COc1ccc([C@@H]2CC(=O)c3c(O)cc(O[C@@H]4O[C@H](CO[C@@H]5O[C@@H](C)[C@H](O)[C@@H](O)[C@H]5O)[C@@H](O)[C@H](O)[C@H]4O)cc3O2)cc1O [HESPERIDIN] | 66.25% | 21.5% | 0.35 | 36% |  |  |  |
| STROPH[…] LACTONE ACETATE | 96.28% | 80.7% | 2.37 | 19% |  |  |  |
| CC1=CC(=O)[C@H]2C(C)(C)CCC[C@]2(C)[C@@]1(O)CCc1ccoc1 [SOLIDAGENONE] | -14.64% | 39.6% | 0.73 |  |  |  |  |
| O=c1cc(-c2ccccc2O)oc2cc(O)ccc12 [7,2'-DIHYDROXYFLAVONE] | -16.96% | 12.6% | 0.19 |  |  |  |  |
| CC(=O)OCC1=C(C(=O)O)N2C(=O)[C@@H](N)[C@H]2SC1 [7-AMINOCEPHALOSPORANIC ACID] | -11.44% | 12.1% | 0.19 |  |  |  |  |
| O=C(O)c1cc(O)c(=O)c2c(O)c(O)cc([C@H]3Oc4cc(O)cc(O)c4C[C@H]3O)c2c1 [EPITHEAFLAVIC ACID] | -9.36% |  |  |  | 6.9% |  |  |
| C=CC[S+]([O-])C[C@H](N)C(=O)O (mixture of isomers) [L(+/-)-ALLIIN] | 21.98% | -12.5% | -0.17 |  |  |  |  |
| O=c1c(O)c(-c2ccc(O)c(O)c2)oc2c(O[C@@H]3O[C@H](CO)[C@@H](O)[C@H](O)[C@H]3O)c(O)cc(O)c12 [GOSSYPIN] | -22.05% | -4.8% | -0.07 |  |  |  |  |
| VERATRINE SULFATE | 25.98% |  |  |  | -4.3 | -0.06 |  |
| CC(=O)O[C@H]1CC[C@]2(C)C3=C(CC[C@H]2C1(C)C)[C@]1(C)CC[C@H]([C@H](C)CCC=C(C)C)[C@@]1(C)CC3 [LANOSTEROL ACETATE] | -3.78% | -2.8% | -0.04 |  |  |  |  |
| CC(=O)[C@@]1(O)CC[C@H]2[C@@H]3CCC4=CC(=O)CC[C@]4(C)[C@H]3CC[C@@]21C [HYDROXYPROGESTERONE] | -50.17% | 22.7% | 0.37 |  |  |  |  |
| Br.CN1[C@H]2C[C@H](OC(=O)[C@H](CO)c3ccccc3)C[C@@H]1[C@@H](O)C2 [ANISODAMINE HYDROBROMIDE] | 5.51% | -32.6% | -0.41 |  |  |  |  |
| COc1cc2c(cc1-c1cc3cc4ccoc4cc3oc1=O)OCO2 [PACHYRRHIZIN] | 29.77% | -6.0% | -0.08 |  |  |  |  |
| COc1cc(O)c(C(=O)/C=C/c2ccc(OC)c(O)c2)c(OC)c1 [2',3-DIHYDROXY-4,4',6'-TRIMETHOXYCHALCONE] | -6.64% | -22.2% | -0.29 |  |  |  |  |
| GARLICIN | 4.93% |  |  |  | -30.8% |  |  |
| C[C@@H](N)[C@@H](O)c1ccccc1 [1R,2S-PHENYLPROPYLAMINE] | -7.00% |  |  |  | -12.0 | -0.16 |  |
| PHYTOL | -12.94% | -33.6% | -0.42 |  |  |  |  |
| COc1ccc(-c2cc(=O)c3c(O)c(OC)c(OC)c(OC)c3o2)cc1OC [DEMETHYLNOBILETIN] | 91.41% | -4.6% | -0.06 | 29% |  |  |  |
| COc1ccc(-c2oc3cc(OC)c(OC)c(OC)c3c(=O)c2OC)cc1OC [HEXAMETHYLQUERCETAGETIN] | 95.76% | 50.3% | 1.01 | -42% |  |  |  |
| C[C@H](CCC(=O)O)[C@H]1CC[C@H]2[C@@H]3C[C@H](O)[C@@H]4C[C@H](O)CC[C@]4(C)[C@H]3CC[C@]12C [alpha-HYDROXYDEOXYCHOLIC ACID] | -6.93% | -43.0% | -0.52 |  |  |  |  |
| Cc1cc2nc3c(=O)[nH]c(=O)nc-3n(C[C@H](O)[C@H](O)[C@H](O)COP(=O)([O-])O)c2cc1C.[Na+] [RIBOFLAVIN 5-PHOSPHATE SODIUM] | -3.47% | -25.0% | -0.32 |  |  |  |  |

| Compound | Inhibition (%) ([1]; primary screening at 10 uM) | Cytotoxicity (%) [2, 3] | Hs18S ΔCT [2, 4] | % Inhibition (3.3 uM) [1] | Cytotoxicity (%) ([2]; 10 µM) | Hs18S ΔCT [2] | Inhibition (%) ([1]; 10 µM) |
| --- | --- | --- | --- | --- | --- | --- | --- |
| COC(=O)/C=C/c1cc(OC)c(OC)c(OC)c1 [METHYL TRIMETHOXYCINNAMATE] | -24.35% | 2.8% | 0.04 |  |  |  |  |
| COc1ccc2c(c1O)-c1c(OC)c(OC)cc3c1[C@H](C2)N(C)CC3 [S-ISOCORYDINE (+)] | -15.72% | -47.4% | -0.56 |  |  |  |  |
| COc1ccc(/C=C/C(=O)c2cc(O)ccc2O)cc1 [2',5'-DIHYDROXY-4-METHOXYCHALCONE] |  |  |  |  | -37.7 | -0.46 | -23.93 |
| COLISTIN SULFATE | 33.43% | 0.4% | 0.01 |  |  |  |  |
| O=c1cc(-c2ccccc2)oc2cccc(O)c12 [PRIMULETIN] | -14.55% | 3.1% | 0.05 |  |  |  |  |
| CN[C@@H]1[C@H](O)[C@H](NC)[C@H]2O[C@@]3(O)C(=O)C[C@@H](C)O[C@H]3O[C@@H]2[C@H]1O.Cl [SPECTINOMYCIN HYDROCHLORIDE] | -6.16% | -42.8% | -0.51 |  |  |  |  |
| C[C@@H]1[C@H](O)[C@@H](C)/C=C/C=C/CC/C=C/C=C/C=C/C=C/C(O[C@H]2O[C@H](C)[C@@H](O)[C@H](N)[C@@H]2O)CC2O[C@](O)(CC(O)C(O)CCC(O)CC(O)CC(O)CC(=O)O[C@H]1C)CC(O)C2C(=O)O (stereo partly drawn) [NYSTATIN] | 34.97% | 51.7% | 1.05 |  |  |  |  |
| O.OC[C@H]1O[C@@H](O[C@H]2[C@H](O)[C@@H](O)[C@@H](O)O[C@@H]2CO)[C@H](O)[C@@H](O)[C@H]1O [LACTOSE MONOHYDRATE] | 31.71% |  | 0.02 |  |  |  |  |
| C=C[C@@]1(C)CC(=O)[C@@]2(O)[C@](C)(O1)[C@@H](O)[C@@H](O)C1C(C)(C)CC[C@H](O)[C@@]12C (stereo partly drawn) [DESACETYLCOLFORSIN] | -6.53% | 14.3% | 0.22 |  |  |  |  |
| C[C@@H]1CC[C@@]2(OC1)O[C@H]1C[C@H]3[C@@H]4CC[C@@H]5C[C@@H](O)CC[C@]5(C)[C@H]4CC[C@]3(C)[C@H]1[C@@H]2C [SMILAGENIN] | 13.52% | 33.2% | 0.58 |  |  |  |  |
| BICUCULLINE(-) METHIODIDE | -0.49% | -4.9% | -0.07 |  |  |  |  |
| NC(=O)CC[C@H](N)C(=O)O [GLUTAMINE (D)] | 2.46% | -11.8% | -0.16 |  |  |  |  |
| TANNIC ACID | -22.61% | 17.0% | 0.27 |  |  |  |  |
| O=C(O[C@@H]1Cc2c(O)cc(O)cc2O[C@@H]1c1cc(O)c(O)c(O)c1)c1cc(O)c(O)c(O)c1 [EPIGALLOCATECHIN-3-MONOGALLATE] | 10.02% | -14.2% | -0.19 |  |  |  |  |
| C[C@H](CC(=O)[C@@H]1OC1(C)C)[C@H]1C(=O)C[C@@]2(C)C3=CC[C@H]4C(C)(C)[C@@H](O[C@@H]5OC[C@@H](O)[C@H](O)[C@H]5O)CC[C@@]45C[C@@]35[C@@H](O)C[C@]12C [CIMICIFUGOSIDE H1] | 58.34% | 69.4% | 1.71 |  |  |  |  |
| COc1ccc(-c2coc3c4c(c(CC=C(C)C)c(O)c3c2=O)OC(C)(C)C=C4)cc1 [OSAJIN 4'-METHYL ETHER] | -21.87% | -2.7% | -0.04 |  |  |  |  |
| CC(=O)O[C@H]1C[C@@H](OC(C)=O)C(C)(C)[C@@H]2C[C@@H](OC(C)=O)[C@@]3(C)C4=CC(=O)O[C@@H](c5ccoc5)[C@]4(C)CC[C@@H]3[C@@]12C [DEOXYKHIVORIN] | 27.34% | 7.7% | 0.11 |  |  |  |  |
| CC(C)CCC[C@@H](C)[C@H]1CC[C@H]2[C@@H]3CC[C@H]4CCCC[C@]4(C)[C@H]3CC[C@]12C [CHOLESTANE] | 13.94% | 12.2% | 0.19 |  |  |  |  |
| O=c1cc(-c2cc(O)c(O)c(O)c2)oc2cc(O)cc(O)c12 [HIERACIN] | -2.75% |  |  |  | 31.0% |  |  |
| C[N+](C)(C)CC(O)CC(=O)O.[Cl-] (stereo not drawn) [CARNITINE (dl) HYDROCHLORIDE] | -3.41% | -73.4% | -0.79 |  |  |  |  |
| CC1=CC(=O)CC(C)(C)C1(O)/C=C/C(C)=C\C(=O)O (racemic) [ABSCISIC ACID (cis,trans; +/-)] | -7.09% | 36.3% | 0.65 |  |  |  |  |
| COc1cc(O)c(C(C)=O)c(O)c1 [4-O-METHYLPHLORACETOPHENONE] | 2.57% | 10.4% | 0.16 |  |  |  |  |
| CC(C(=O)O)[C@H]1CCC2C3CC=C4C[C@@H](O)CC[C@]4(C)C3CC[C@@]21C (stereo partly drawn) [3beta-HYDROXY-23,24-BISNORCHOL-5-ENIC ACID] | -20.26% | -63.2% | -0.71 |  |  |  |  |
